Target: T1, ΔF508-CFTR (Homo sapiens, UniProt P13569, DEL508-508)
T1 construct: host or cells: CFBE41o-, doxycycline-inducible
Assay: CFTR cell surface levels using HRP-tagged ΔF508-CFTR expressing CFBE cells, in the presence of a co-corrector
Type: cell-based
Settings: HRP-tagged ΔF508-CFTR expressing CFBE cells, in the presence of 3 μM co-corrector; for EC50: read-out: EC50
Text: Measuring CFTR Cell Surface Levels Using HRP-Tagged AF508-CFTR Expressing CFBE Cells
The HRP-tagged AF508-CFTR cell assay measures the expression of CFTR-ΔF508 at the plasma membrane. CFTR-ΔF508 has a folding defect leading to absence of protein at the plasma membrane. This assay is used to evaluate the capacity of compounds to increase the expression of CFTR-ΔF508 at the plasma membrane. The CFTR-ΔF508 is tagged with HRP (horse radish peroxidase enzyme) within the ECL4 (Extracellular loop 4) of CFTR (Phuan, P.-W. et al. Synergy-based small-molecule screen using a human lung epithelial cell line yields AF508-CFTR correctors that augment VX-809 maximal efficacy. Mol. Pharmacol. 86, 42-51 (2014)). When HRP-tagged AF508-CFTR is present at the plasma membrane, the HRP enzyme activity can be measured. The amount of CFTR-ΔF508 that can be rescued to the plasma membrane is correlated with the amount of functional enzyme that can be measured.
There are several ways to measure the capacity of compounds to rescue CFTR-ΔF508 to the plasma membrane; either compounds are evaluated on their own and the impact on plasma membrane levels is measured or compounds are evaluated in combination with a co-corrector, i.e. a compound that rescues CFTR-ΔF508 to the plasma membrane but rescue can be enhanced by addition of compounds due to a complementary mode of action.
Activity of Compounds in Combination with Co-Corrector:
For this purpose doxycycline-inducible AF508-CFTR-HRP expressing CFBE4lo-cells (obtained from Gergely Lukacs, McGill University) were maintained in MEM (Minimum Essential Medium, Gibco; 31095) supplemented with 10% fetal bovine serum (Hyclone; SV30160.03) under puromycin (3 μg/mL) and G418 selection (0.2 mg/mL). For compound testing, cells were seeded at 4000 cells/well in white 384-well plates (Greiner; 781080) in 50 μL of medium containing 0.5 μg/mL doxycycline and incubated for 68 hours at 37° C., 5% CO2. On day four, 10 μL of test compounds diluted in PBS (phosphate buffered saline) were added to the plates at a final DMSO concentration of 0.1%. In order to measure compound synergy with a co-corrector, 3 μM co-corrector (3-[(2R,4R)-4-({[1-(2,2-difluoro-1,3-benzodioxol-5-yl)cyclopropyl]carbonyl}amino)-7-methoxy-3,4-dihydro-2H-chromen-2-yl]benzoic acid) was added along with test compounds. All compound plates contained negative controls (DMSO) and positive controls (3 μM co-corrector). Cell plates were incubated at 33° C., 5% CO2 for 20 hours. On day five, the cells were washed five times with phosphate-buffered saline, and HRP activity was assayed by the addition of 50 μL/well of HRP substrate (SuperSignal™ West Pico Chemiluminescent Substrate, Thermo Scientific; 34080). After incubation for 15 minutes in the dark, the chemiluminescence was measured using a plate reader (EnVision®, Perkin Elmer). Raw data were normalized to percentage activity values using the equation: 100×(Sample−Negative control)/(Positive control−Negative Control).

T1 sequence (P13569 with tags, fused parts or gaps DEL508-508): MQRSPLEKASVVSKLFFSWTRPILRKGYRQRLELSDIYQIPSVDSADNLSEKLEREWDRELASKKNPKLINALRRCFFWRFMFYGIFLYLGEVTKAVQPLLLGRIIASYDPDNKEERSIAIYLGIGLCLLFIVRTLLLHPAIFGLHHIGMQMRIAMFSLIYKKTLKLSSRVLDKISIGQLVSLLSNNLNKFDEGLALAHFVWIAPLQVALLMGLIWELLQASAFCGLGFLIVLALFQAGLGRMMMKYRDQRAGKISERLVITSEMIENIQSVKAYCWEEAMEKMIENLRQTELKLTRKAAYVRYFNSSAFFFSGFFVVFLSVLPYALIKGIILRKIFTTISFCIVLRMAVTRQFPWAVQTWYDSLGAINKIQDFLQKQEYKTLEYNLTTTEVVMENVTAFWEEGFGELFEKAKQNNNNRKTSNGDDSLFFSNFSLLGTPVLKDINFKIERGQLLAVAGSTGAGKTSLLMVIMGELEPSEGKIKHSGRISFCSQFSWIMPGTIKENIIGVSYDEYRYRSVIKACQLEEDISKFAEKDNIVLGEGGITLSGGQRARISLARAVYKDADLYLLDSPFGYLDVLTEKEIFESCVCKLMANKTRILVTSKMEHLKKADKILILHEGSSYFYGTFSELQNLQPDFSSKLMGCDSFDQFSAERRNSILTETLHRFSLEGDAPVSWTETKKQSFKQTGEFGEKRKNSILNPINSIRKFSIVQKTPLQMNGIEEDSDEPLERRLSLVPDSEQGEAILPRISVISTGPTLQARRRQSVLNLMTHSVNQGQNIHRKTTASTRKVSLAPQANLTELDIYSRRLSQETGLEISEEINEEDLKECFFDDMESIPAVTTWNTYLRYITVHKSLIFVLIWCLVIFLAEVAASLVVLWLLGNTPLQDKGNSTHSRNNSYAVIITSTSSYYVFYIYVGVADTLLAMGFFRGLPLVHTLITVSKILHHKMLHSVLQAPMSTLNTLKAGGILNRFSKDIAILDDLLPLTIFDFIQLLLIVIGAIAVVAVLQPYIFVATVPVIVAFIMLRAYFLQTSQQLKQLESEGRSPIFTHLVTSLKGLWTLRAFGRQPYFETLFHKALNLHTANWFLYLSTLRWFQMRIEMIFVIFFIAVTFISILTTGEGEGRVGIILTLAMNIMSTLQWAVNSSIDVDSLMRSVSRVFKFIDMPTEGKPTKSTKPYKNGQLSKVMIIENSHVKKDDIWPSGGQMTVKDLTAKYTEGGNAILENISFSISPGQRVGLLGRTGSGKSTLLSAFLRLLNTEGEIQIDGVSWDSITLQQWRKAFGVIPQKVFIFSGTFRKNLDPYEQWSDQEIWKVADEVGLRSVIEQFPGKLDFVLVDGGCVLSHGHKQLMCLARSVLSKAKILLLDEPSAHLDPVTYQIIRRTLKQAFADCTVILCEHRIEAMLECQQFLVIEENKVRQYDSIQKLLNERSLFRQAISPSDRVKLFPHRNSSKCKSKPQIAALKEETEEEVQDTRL

Cc1nn(-c2ccccc2)c2nc(C(=O)O)cc(-c3ccc(N4CCOCC4)cc3)c12 [compound 1, 3-methyl-4-[4-(morpholin-4-yl)phenyl]-1-phenyl-1H-pyrazolo[3,4-b]pyridine-6-carboxylic acid]
% Activation: 354.48%
EC50: 1.04 µM

Cc1nn(C2CCCCC2)c2nc(C(=O)O)cc(-c3ccc(N4CCOCC4)cc3)c12 [compound 17, 1-cyclohexyl-3-methyl-4-[4-(morpholin-4-yl)phenyl]-1H-pyrazolo[3,4-b]pyridine-6-carboxylic acid]
% Activation: 272.5%
EC50: 1.14 µM

CC(C)(C)c1nn(-c2ccccc2)c2nc(C(=O)O)cc(-c3ccc(N4CCOCC4)cc3)c12 [compound 40, 3-tert-butyl-4-[4-(morpholin-4-yl)phenyl]-1-phenyl-1H-pyrazolo[3,4-b]pyridine-6-carboxylic acid]
% Activation: 340.8%
EC50: 0.393 µM

Cc1nn(-c2ccccc2)c2nc(C(=O)O)cc(-c3ccc(N4CCOCC4)nc3)c12 [compound 50, 3-methyl-4-[6-(morpholin-4-yl)pyridin-3-yl]-1-phenyl-1H-pyrazolo[3,4-b]pyridine-6-carboxylic acid]
% Activation: 313.2%
EC50: 2.12 µM

Cc1nn(-c2ccccc2)c2nc(C(=O)O)cc(-c3ccc(N4CCC(C#N)CC4)cc3)c12 [compound 109, 4-[4-(4-cyanopiperidin-1-yl)phenyl]-3-methyl-1-phenyl-1H-pyrazolo[3,4-b]pyridine-6-carboxylic acid]
% Activation: 398.15%
EC50: 0.752 µM

Cc1nn(-c2ccccc2)c2nc(C(=O)O)cc(-c3ccc(N(C)C4CCOCC4)cc3)c12 [compound 110, 3-methyl-4-{4-[methyl(oxan-4-yl)amino]phenyl}-1-phenyl-1H-pyrazolo[3,4-b]pyridine-6-carboxylic acid]
% Activation: 397.65%
EC50: 0.536 µM

CC1(c2nn(-c3ccccc3)c3nc(C(=O)O)cc(-c4ccc(N5CCOCC5)cc4)c23)COC1 [compound 113, 3-(3-methyloxetan-3-yl)-4-[4-(morpholin-4-yl)phenyl]-1-phenyl-1H-pyrazolo[3,4-b]pyridine-6-carboxylic acid]
% Activation: 277%
EC50: 1.17 µM

COCc1nn(-c2ccccc2)c2nc(C(=O)O)cc(-c3ccc(N4CCOCC4)cc3)c12 [compound 122, 3-(methoxymethyl)-4-[4-(morpholin-4-yl)phenyl]-1-phenyl-1H-pyrazolo[3,4-b]pyridine-6-carboxylic acid]
% Activation: 311.75%
EC50: 1.77 µM

Cc1nn(-c2ccccc2)c2nc(C(=O)O)cc(-c3ccc(N4CCC(O)CC4)cc3)c12 [compound 144, 4-[4-(4-hydroxypiperidin-1-yl)phenyl]-3-methyl-1-phenyl-1H-pyrazolo[3,4-b]pyridine-6-carboxylic acid]
% Activation: 338.4%
EC50: 2.62 µM

CC(C)c1nn(C2CCCCC2)c2nc(C(=O)O)cc(N3CCC(C#N)CC3)c12 [compound 263, 4-(4-cyanopiperidin-1-yl)-1-cyclohexyl-3-(propan-2-yl)-1H-pyrazolo[3,4-b]pyridine-6-carboxylic acid]
% Activation: 334.25%
EC50: 1.13 µM

CC1(c2nn(-c3ccccc3)c3nc(C(=O)O)cc(-c4ccc(N5CCOCC5)cc4)c23)CCC1 [compound 332, 3-(1-methylcyclobutyl)-4-[4-(morpholin-4-yl)phenyl]-1-phenyl-1H-pyrazolo[3,4-b]pyridine-6-carboxylic acid]
% Activation: 346.12%
EC50: 0.917 µM

O=C(O)c1cc(N2C[C@@H](O)[C@H](O)C2)c2c(C3CCC3)nn(-c3ccccc3)c2n1 [compound 445, 3-cyclobutyl-4-[(3R,4R)-3,4-dihydroxypyrrolidin-1-yl]-1-phenyl-1H-pyrazolo[3,4-b]pyridine-6-carboxylic acid]
% Activation: 127.85%
EC50: > 10 µM

CN(CC1CCOCC1)c1cc(C(=O)O)nc2c1c(C1CCC1)nn2-c1ccccc1 [compound 554, 3-cyclobutyl-4-{methyl[(oxan-4-yl)methyl]amino}-1-phenyl-1H-pyrazolo[3,4-b]pyridine-6-carboxylic acid]
% Activation: 365.83%
EC50: 1.72 µM

CN(C)C(=O)CN1CCN(c2cc(C(=O)O)nc3c2c(C2CCC2)nn3-c2ccccc2)CC1 [compound 559, 3-cyclobutyl-4-{4-[2-(dimethylamino)-2-oxoethyl]piperazin-1-yl}-1-phenyl-1H-pyrazolo[3,4-b]pyridine-6-carboxylic acid]
% Activation: 352.47%
EC50: 2.05 µM

CN1CCN(c2cc(C(=O)O)nc3c2c(C2CCC2)nn3-c2ccccc2)CC1 [compound 563, 3-cyclobutyl-4-(4-methylpiperazin-1-yl)-1-phenyl-1H-pyrazolo[3,4-b]pyridine-6-carboxylic acid]
% Activation: 272.97%
EC50: 2.23 µM

CC(C)CN1CCC(CN(C)c2cc(C(=O)O)nc3c2c(C2CCC2)nn3-c2ccccc2)CC1 [compound 564, 3-cyclobutyl-4-(methyl{[1-(2-methylpropyl)piperidin-4-yl]methyl}amino)-1-phenyl-1H-pyrazolo[3,4-b]pyridine-6-carboxylic acid]
% Activation: 369.1%
EC50: 2.45 µM

CN(CCN1CCOCC1)c1cc(C(=O)O)nc2c1c(C1CCC1)nn2-c1ccccc1 [compound 565, 3-cyclobutyl-4-{methyl[2-(morpholin-4-yl)ethyl]amino}-1-phenyl-1H-pyrazolo[3,4-b]pyridine-6-carboxylic acid]
% Activation: 319.8%
EC50: 1.93 µM

CN(C)[C@@H]1CCN(c2cc(C(=O)O)nc3c2c(C2CCC2)nn3-c2ccccc2)C1 [compound 567, 3-cyclobutyl-4-[(3R)-3-(dimethylamino)pyrrolidin-1-yl]-1-phenyl-1H-pyrazolo[3,4-b]pyridine-6-carboxylic acid]
% Activation: 302.8%
EC50: 2.11 µM

CN(C)[C@H]1CCN(c2cc(C(=O)O)nc3c2c(C2CCC2)nn3-c2ccccc2)C1 [compound 568, 3-cyclobutyl-4-[(3S)-3-(dimethylamino)pyrrolidin-1-yl]-1-phenyl-1H-pyrazolo[3,4-b]pyridine-6-carboxylic acid]
% Activation: 279.9%
EC50: 2.48 µM

CNC(=O)CN1CCN(c2cc(C(=O)O)nc3c2c(C2CCC2)nn3-c2ccccc2)CC1 [compound 569, 3-cyclobutyl-4-{4-[2-(methylamino)-2-oxoethyl]piperazin-1-yl}-1-phenyl-1H-pyrazolo[3,4-b]pyridine-6-carboxylic acid]
% Activation: 259.37%
EC50: 3.06 µM

O=C(O)c1cc(N2CCN(C(=O)CN3CCOCC3)CC2)c2c(C3CCC3)nn(-c3ccccc3)c2n1 [compound 570, 3-cyclobutyl-4-{4-[(morpholin-4-yl)acetyl]piperazin-1-yl}-1-phenyl-1H-pyrazolo[3,4-b]pyridine-6-carboxylic acid]
% Activation: 254%
EC50: 3.33 µM

O=C(O)c1cc(N2CCCN(CC3CCCO3)CC2)c2c(C3CCC3)nn(-c3ccccc3)c2n1 (centres unmarked) [compound 572, 3-cyclobutyl-4-{4-[(oxolan-2-yl)methyl]-1,4-diazepan-1-yl}-1-phenyl-1H-pyrazolo[3,4-b]pyridine-6-carboxylic acid]
% Activation: 330.8%
EC50: 1.19 µM

COc1cc(C(=O)O)nc2c1c(C1CCC1)nn2-c1ccccc1 [compound 584, 3-cyclobutyl-4-methoxy-1-phenyl-1H-pyrazolo[3,4-b]pyridine-6-carboxylic acid]
% Activation: 202.2%
EC50: 2.88 µM

O=C(O)c1cc(OC2CCC2)c2c(C3CCC3)nn(-c3ccccc3)c2n1 [compound 585, 3-cyclobutyl-4-(cyclobutyloxy)-1-phenyl-1H-pyrazolo[3,4-b]pyridine-6-carboxylic acid]
% Activation: 245.3%
EC50: 2.49 µM

COCCOCCOc1cc(C(=O)O)nc2c1c(C1CCC1)nn2-c1ccccc1 [compound 586, 3-cyclobutyl-4-[2-(2-methoxyethoxy)ethoxy]-1-phenyl-1H-pyrazolo[3,4-b]pyridine-6-carboxylic acid]
% Activation: 322.2%
EC50: 2 µM
